# Measurements published in patent US7357913B2, “Methods for detecting, prognosing, or monitoring a disorder by comparing relative flux rates of two or more biological molecules in vivo” (The Regents of the University of California, priority 2003, dated 2008).
# Entries after “also recorded” stand apart in the source; their conditions may differ.
# Tests used:
# total liver cell = test: Total liver cell proliferation (DNA synthesis) after CCl4; assay type: in vivo, mouse
# Procedure: SVJ mice were injected 2× weekly with 1.0 ml/kg or 0.25 mL/kg of CCl4 or vehicle for up to 4 weeks Cell proliferation was measured at 2, 7, 14, 21 and 28 days of ^2H2O administration and CCl4 treatment using the methods of the present invention as described, supra.
# liver collagen = test: Liver collagen synthesis (2H into hydroxyproline) after CCl4; assay type: in vivo, mouse
# Procedure: Liver collagen synthesis was measured concurrently (i.e., simultaneously) with de novo DNA synthesis in the same CCl4-treated SJV mice. Collagen was purified from 10 mg of fresh total liver homogenate as follows: using a Polytron homogenizer, collagen was isolated from soft tissue by homogenizing in 0.5 mL 100 mM NaOH. Under these conditions, collagen remains insoluble while most other proteins are readily dissolved. After centrifugation at 7,000 ×g for 10 minutes at 4° C., the supernatant was discarded. The pellet was washed briefly with 2 mL H2O and solubilized in reducing Laemmli sample buffer (Bio-Rad, Hercules, Calif.) after boiling for 3 minutes. The dissolved material was size-fractionated by SDS-PAGE. […]
# Acetone precipitated total liver protein and PVDF-bound collagen were hydrolyzed by treating with 6 N HCl, 16 hours at 110° C. […] Hydroxyproline was analyzed on a DB225 GC column, starting temp 100° C. increasing 10° C./min to 220° C. with selected ion monitoring of m/z 352,353.
# Hydroxyproline is a molecule of interest and is measured as OH-proline, the molecule being essentially unique to collagen. Because of this fact, total liver protein hydrolysate can be derivatized and the ^2H enrichment of hydroxyproline determined by GC/MS as described, supra. […]
# [1] = system: non-small cell lung carcinoma cells (SW1573); test: Tumor cell proliferation (de novo DNA synthesis, 2H2O labeling) in SW1573 xenograft mice, gemcitabine; assay type: in vivo, human; details: male balb/C nu/nu mice, SW1573 s.c. in matrigel, increasing doses every other day, 5 days
# Procedure: (§1) Male balb/C nu/nu mice were implanted subcutaneously with non-small cell lung carcinoma cells (SW1573) cells in matrigel. Mice were labeled with 2H2O and treated with increasing doses of gemcitabine (Gem), administered every other day (as shown in FIG. 9). After 5 days, tumor, colon and bone marrow were removed using techniques well known in the art, and as described, supra. Cell proliferation was measured as described, supra. […] De novo DNA synthesis from all three cell types was measured concurrently using the methods of the present invention. Briefly, heavy water (^2H2O) is administered to living organisms (8% ^2H2O in drinking water). DNA is isolated, hydrolyzed to free dNs, and deuterium incorporation into the deoxyribose (dR) moiety of purine and pyrimidine dNs is measured by gas chromatography/mass spectrometry (GC/MS) as described, supra.
# bone marrow cells = test: Bone marrow cell proliferation (de novo DNA synthesis, 2H2O labeling), gemcitabine study; assay type: in vivo, mouse; details: male balb/C nu/nu mice with SW1573, increasing doses every other day, 5 days
# Procedure: as §1
# colonocytes = test: Colonocyte proliferation (de novo DNA synthesis, 2H2O labeling), gemcitabine study; assay type: in vivo, mouse; details: male balb/C nu/nu mice with SW1573; for colon cell (colonocyte) proliferation: increasing doses every other day, 5 days
# Procedure: as §1
# [2] = system: EMT7 mouse mammary carcinoma cells; test: Tumor cell proliferation in EMT7 tumor-bearing mice, Gem and HU; assay type: in vivo; details: female balb/C nu/nu mice, EMT7 tumors; Gem 125 mg/kg every other day, HU 500 mg/kg daily; 5 days
# Procedure: Female balb/C nu/nu mice were implanted subcutaneously with approximately 106 EMT7 mouse mammary carcinoma cells in matrigel. Tumors were allowed to reach ca.1500 mm^3 in size. Mice were labeled with ^2H2O and treated with either 125mg/kg gemzar (gemcitabine or Gem) or 500 mg/kg hydroxyurea (HU). Gem was administered every other day; HU daily; and control saline daily. At the end of 5 days tumors were removed and cell proliferation was measured as described, supra.
# [3] = Food intake and body weight under 2H2O treatment in mice; assay type: in vivo, mouse; details: ca. 2% body water enrichment then 4% 2H2O drinking water, 21 days
# Procedure: Mice were injected with ^2H2O (deuterated water) at a dose to achieve approximately 2% enrichment in the body water pool. The normal drinking water was then replaced with water enriched to 4% ^2H2O. ^2H2O treatment had no impact on food intake or body weight. Twenty-one days following the start of ^2H2O administration, mice were fasted for four hours, anesthetized with isoflurane and exsanguinated via heart puncture. When possible, urine was collected at the same time.
# [4] = Body water 2H2O enrichment in rats; assay type: in vivo, rat; details: rats maintained on 4% 2H2O in drinking water after i.p. priming bolus
# Procedure: ^2H2O labeling protocols in rodents consisted of an initial intraperitoneal priming bolus to 2.0-2.5% body water enrichment. The priming dose of ^2H2O (100%) was given to the rats (e.g., for a 225 g rat, 2% of 135 ml, or 2.7 ml, given in divided doses 1 hour apart) based on estimated 60% body weight as water, followed by administration of 4% ^2H2O in the drinking water. The 4% enrichment of ^2H2O in drinking water was chosen as a convenient dose that produces sufficient enrichments in biosynthetic products of interest and has no known toxicities. ^2H2O (70% and 100%) was purchased commercially from Cambridge Isotopes (Andover, Mass.). Drinking was ad-libitum. Rats were sacrificed by CO2 asphyxiation.
# Body water ^2H2O enrichments were measured serially. The steady state body ^2H2O enrichments attained in rats maintained on 4% ^2H2O in drinking water were approximately 3.0% and were stable over time in individual animals.
# [5] = human, in vivo, po
# Procedure: (§2) The ^2H2O was administered orally. The initial priming dose was carried out in the General Clinical Research Center (GCRC) of SF General Hospital. Subjects received a total of 350-400 mL of ^2H2O in the GCRC, given as divided doses over the course of 18-21 hours (70 mL of 70% ^2H2O, given every 3-4 hours), to achieve about 1.0% enrichment in the body water pool. The ^2H2O was purchased from-Isotec, Inc. (Miamisburgh, Ohio) and dispensed in sterile containers. Subjects then took 50 mL of 70% ^2H2O three times a day for 5 days, then 35-50 mL twice-a-day for the remainder of the 8-10 week labeling protocol. This protocol achieves near-plateau body ^2H2O enrichments (1.5-2.0%, see below) within 5-7 days in most subjects and was well-tolerated. Subjects received the ^2H2O as individual aliquots (35-50 mL of 70% ^2H2O) in plastic vials, which were stored in the refrigerator.
# ^2H2O enrichments in body water were measured from plasma or urine. A 15-20 μL sample was reacted in an evacuated GC vial with calcium carbide to produce acetylene. The acetylene gas was then transferred with a syringe and injected into an evacuated GC vial containing 10% bromine in carbon tetrachloride and incubated at room temperature for 2 hours to produce tetrabromoethane. […] The tetrabromoethane, containing hydrogen atoms from body H2O, was then analyzed by GC/MS.
# [6] = Tolerability of oral 2H2O labeling protocol in human subjects; assay type: in vivo; details: 8-10 week labeling protocol
# Procedure: as §2
# adipose tissue = test: Adipose tissue dynamics (TG synthesis, de novo lipogenesis, adipocyte proliferation) in leptin treated ob/ob mice; assay type: in vivo, mouse
# Procedure: Four week old, female, C57/b16j mice (Jackson Labs Bar Harbor, […].) were divided into four groups: C57/b16j^+/? controls (con), ad libitum fed C57/b16j^lep-/lep-(ob/ob), leptin treated ob/ob (ob-lep) and food restricted ob/ob (ob-r). All mice were housed individually in hanging wire cages and given free access to water. The light cycle was on from noon to midnight and mean temperature was 73° F. Diets were from a purified formula with 1 g “dustless” pellets used for the ad lib fed animals and 45 mg for the food restricted ob/ob mice (Bio Serv, Frenchtown, N.J.). Mice were given 3 days to acclimate to the environment, during which time some weight loss was observed. After the acclimation period, food restriction or leptin treatment was begun and food intake and body weights were measured periodically. […]
# The percent of TG newly synthesized during the labeling period was calculated based on the precursor-product relationship, as described supra, using body water enrichment to estimate the maximal or asymptotic enrichment in TG-glycerol. The relationship between body water and the maximal TG-glycerol enrichment has been determined through combinatorial analysis (mass isotopomer distribution analysis MIDA) and by measurement of 100% replaced TG pools after long-term ^2H2O labeling. […] The fraction of TG which is newly synthesized is then calculated as: Fractional synthesis (f)=EM1/A1^∞. […]
molecule,measurement,setting,value
"ClC(Cl)(Cl)Cl [CCl4, carbon tetrachloride]",new liver cells present,total liver cell; after 4 weeks of repeated CCl4 dosing,~100%
same,total liver cell proliferation relative to vehicle control,"total liver cell; mice injected 2x weekly, both doses (1.0 ml/kg and 0.25 mL/kg), up to 4 weeks",significantly increased; also recorded: significant cell proliferation occurred at both doses
same,"liver collagen synthesis relative to vehicle control, high dose",liver collagen; high dose of CCl4 (1.0 ml/kg 2x weekly),significant collagen synthesis occurred only at the highest dose; also recorded: increased
same,"liver collagen synthesis relative to vehicle control, low dose",liver collagen; low dose of CCl4 (0.25 mL/kg 2x weekly),no effect
"Nc1ccn([C@@H]2O[C@H](CO)[C@@H](O)C2(F)F)c(=O)n1 [Gem, gemcitabine]",tumor cell proliferation,[1],inhibits
same,tumor cell proliferation,[1]; listed as gemcitabine,inhibited in tumor and bone marrow cells in a dose-response manner
same,bone marrow cell proliferation,bone marrow cells,inhibits
same,bone marrow cell proliferation,bone marrow cells; listed as gemcitabine,inhibited in tumor and bone marrow cells in a dose-response manner
same,colon cell (colonocyte) proliferation,colonocytes,relatively little effect
same,colon cell (colonocyte) proliferation,colonocytes; listed as gemcitabine,little inhibition
same,colonocyte proliferation at the lower experimental doses,colonocytes; lower experimental doses,may have a stimulatory effect
same,tumor cell proliferation relative to saline control,[2],caused reductions; also recorded: decreased
[2H]O[2H] [^2H2O],impact on food intake or body weight,[3],no impact
same,steady state body 2H2O enrichment,[4],approximately 3.0%
same,near-plateau body 2H2O enrichment,[5],1.5-2.0%
same,time to near-plateau body 2H2O enrichment,[5],5 to 7 days
same,tolerability of 2H2O protocol,[6],well-tolerated
"NC(=O)NO [HU, hydroxyurea]",tumor cell proliferation relative to saline control,[2],caused reductions; also recorded: decreased
"leptin: murine leptin (Amgen) infused subcutaneously by osmotic pump (protein, UniProt P41160 22-167, looked up) Leptin: VPIQKVQDDTKTLIKTIVTRINDISHTQSVSAKQRVTGLDFIPGLHPILSLSKMDQTLAVYQQVLTSLPSQNVLQIANDLENLRDLLHLLAFSKSCSLPQTSGLQKPESLDGVLEASLYSTEVVALSRLQGSLQDILQQLDVSPEC",TG retained (body fat balance),adipose tissue; leptin treated ob/ob mice,body fat was lost
same,"effect on de novo lipogenesis, adipogenesis and triglyceride synthesis in adipose tissue","adipose tissue; ob/ob mice, murine leptin 2 μg/day s.c. osmotic pump, 21 days 2H2O",influenced all three pathways similarly
